The term solubility denotes the dissolved amount per volume that the medium holds.

In brackets after ≈: the same amount, converted by molar mass.

The nature of this data set: Water solubility of acrylic monomers. It counts as physicochemical. The note with it: 25 °C. An excerpt:
Specific examples of such acrylic monomers may include one or more selected from the group consisting of dipropyleneglycol diacrylate, diethyleneglycol diacrylate, and tetraethyleneglycol dimethacrylate, as shown in the following Table 1.

Consider `C=C(C)C(=O)OCCOCCOCCOCCOC(=O)C(=C)C` [Tetraethylene glycol Dimethacrylate], for which the solubility is, setting by setting: (Table 1, room temperature of 25° C.) 52 to 53 mg/mL (≈ 157 to 160 mM); (stated in the example text for the monomer used) 52 mg/mL (≈ 157 mM).

The record behind these values is patent US11986790B2, “Method for preparing microcapsules” (LG Household & Health Care Ltd., priority 2018, dated 2024).
